From PMC4801399, “Impact of a CXCL12/CXCR4 Antagonist in Bleomycin (BLM) Induced Pulmonary Fibrosis and Carbon Tetrachloride (CCl4) Induced Hepatic Fibrosis in Mice” (PLoS ONE, 2016)
Read-outs that look alike come from different tables or passages of the source.

Legend:
[1] = test system: leukocyte mobilization (blood cell counts); assay: Hematology measurements after IP administration (leukocyte mobilization); format: in vivo, C57BL/6 mice; conditions: IP 400 μg/mouse
Protocol: At each endpoint, animals were euthanized with CO2 and blood collected via cardiac puncture. An aliquot was set aside at room temperature for hematology measurements with remaining blood processed for plasma for drug concentration determination. Lungs and livers were also collected and immediately frozen on dry ice and stored at -70°C until determination of drug concentration.

CXCR4 = test system: CXCR4; parameters: method as in PMID 20297846; conditions: cited from earlier work
[2] = AMD070 PK study via IP injection: plasma, lung and liver concentration; format: in vivo, C57BL/6 mice; conditions: IP 400 μg/mouse; for concentration at 6 h: six hours post administration; for Kp: C57BL/6, read-out: Tissue AUC/Plasma AUC
Protocol: (§1) At each endpoint, animals were euthanized with CO2 and blood collected via cardiac puncture. An aliquot was set aside at room temperature for hematology measurements with remaining blood processed for plasma for drug concentration determination. Lungs and livers were also collected and immediately frozen on dry ice and stored at -70°C until determination of drug concentration. AMD070 concentrations in mouse plasma were determined using protein precipitation extraction followed by UPLC-MS/MS analysis. Briefly, 100 μL aliquots of plasma were transferred to individual wells of an Isolute PPT+ (Biotage) array plate containing 300 μL of 0.1% formic acid (FA) in acetonitrile (ACN). […] The sample residue was then reconstituted into 200 μL of 0.1/5/95 FA/ACN/H2O (v/v/v) and analyzed using reverse phase chromatography (gradient elution) combined with multiple reaction monitoring acquisition (MRM). The mobile phases consisted of 0.1% FA in H2O and 0.1% FA in ACN. AMD070 was extracted from lung and liver tissue by homogenization under basic conditions followed by liquid-liquid extraction in tert-butyl methyl ether (TBME) and ethyl acetate respectively. In summary, 50 mg of lung or liver tissue pieces were cut, weighed, and transferred to homogenization tubes. 25 μL of deionized water for lung and 10 μL for liver were added to each tube, followed by the addition of zirconium (Zr) homogenization beads. The samples were homogenized for approximately 20 seconds in the BeadBeater, followed by 1 minute of centrifugation at room temperature at 13,520 rcf. 200 μL of 1 N NaOH was then transferred to each tube, followed by a second homogenization/centrifugation cycle as described above. […] The dried residue was reconstituted into 0.1/5/95 TFA/ACN/H2O and analyzed using reverse phase chromatography (gradient elution) combined with MRM acquisition in positive electrospray mode (ES+). The mobile phases consisted of 0.1% TFA in H2O and 0.1% TFA in ACN.

[3] = test system: BLM-induced pulmonary fibrosis; assay: BLM-induced murine model of pulmonary fibrosis; format: in vivo, CD-1 mice
Protocol: PF was induced in six-weeks old female CD-1 mice purchased from Harlan. Animals were randomly divided into three groups (n = 10/group): PBS plus acetate buffer control, BLM plus acetate buffer and BLM plus AMD070.
On day 0, mice were anaesthetized with isoflurane and PF was induced by BLM administration. Specifically, BLM (C103610, Fresenius Kabi Canada, 2U/kg) in 40 μL PBS or vehicle control (PBS) was administrated by non-surgical endotracheal instillation with sterile disposable plastic loading pipette tips. The next day, AMD070 (Shanghai Haoyuan Chemexpress Co., 400 μg/mouse in 200 μL 30 mM acetate buffer) or 200 μL of 30 mM acetate buffer (pH 5) was administrated via oral gavage (PO) with a 20G feeding needle. AMD070 or acetate buffer vehicle was administrated daily for 21 consecutive days. Animals were euthanized with avertin overdose on day 22.
Following perfusion with PBS, lungs were fixed in 4% paraformaldehyde at 4°C for 2 days. These were embedded in paraffin, sectioned at 1 mm apart and stained with hematoxylin-eosin (H&E) and Masson’s Trichrome stains. For quantitation of percent PF, entire lung and fibrotic areas were outlined. Percent fibrotic area was calculated by dividing fibrotic area (mm^2) by total lung area (mm^2) and multiplying by 100. For H&E stained slides, two histology slides/animal were selected from the central region of the lungs and analyzed whereas only one histology slide/animal was analyzed with Masson’s Trichrome stained slides. These analyses were performed with Image J and the analyst was blinded to sample identification.

[4] = AMD070 PK study via SC injection: plasma, lung and liver concentration; format: in vivo, C57BL/6 mice; conditions: SC 400 μg/mouse; for Kp: C57BL/6, read-out: Tissue AUC/Plasma AUC
Protocol: as §1, with “All preceding procedures” for “At each endpoint, animals”, “same as those for AMD070 PK studies” for “euthanized with CO2 and blood collected”, “IP injections.” for “cardiac puncture. An aliquot was set aside at room temperature for hematology measurements with remaining blood processed for plasma for drug concentration determination. Lungs and livers were also collected and immediately frozen on dry ice and stored at -70°C until determination of drug concentration.”

[5] = C57BL/6, 400 ug, Plasma, read-out: AUC (all time points)
[6] = BLM plus AMD070 400 μg/mouse PO daily 21 days, day 22, mean, n = 9

With `NCCCCN(Cc1nc2ccccc2[nH]1)[C@H]1CCCc2cccnc21` [AMD070] the RBC levels [1] was “unaffected”, the “Tmax of WBC increase” value [1] was 180 min and the WBC counts [1] was “significant but transient increase”. The “lymphocytes (WBC differential)” value [1] was “increased”, the “neutrophils (WBC differential)” value [1] was “increased” and the platelet levels [1] was “unaffected”. For the same molecule, the “protein binding adjusted effective concentration (EC90)” value (CXCR4; 90% effectiveness) was 0.044 µg/mL, the IC50 (CXCR4) was 13 nM and the Cmax ([2]; C57BL/6, 400 ug, Liver) was 14300 ng/g. It also gave a Tmax ([2]; C57BL/6, 400 ug, Liver) of 30 min, a Cmax ([2]; C57BL/6, 400 ug, Lung) of 6140 ng/g and a Tmax ([2]; C57BL/6, 400 ug, Lung) of 30 min. It also gave a Cmax ([2]; C57BL/6, 400 ug, Plasma) of 770 ng/mL, a Tmax ([2]; C57BL/6, 400 ug, Plasma) of 30 min and an AUC [2, 5] of 1240 ng·h/mL. The concentration at 6 h ([2]; C57BL/6, liver, read-out: liver concentration) was 6470 ng/g, the concentration at 6 h ([2]; C57BL/6, lung, read-out: lung concentration) was 3740 ng/g and the concentration at 6 h ([2]; C57BL/6, plasma, read-out: plasma concentration) was 45 ng/mL. The Kp ([2]; Liver) was 90.7, the Kp ([2]; Lung) was 61.2 and the “liver concentration (peak)” value ([2]; 30 minutes post administration) was 14.3 µg/g. The “lung concentration (peak)” value ([2]; 30 minutes post administration) was 6.14 µg/g, the “plasma concentration (peak)” value ([2]; 30 minutes post administration) was 770 ng/mL and the “lung fibrosis, Masson's Trichrome” value [3, 6] was 10.5%. For the same molecule, the “lung inflammation, H & E stained lungs (percent surface area)” value [3, 6] was 14.2%, the “survival over the duration of the study” value ([3]; BLM plus AMD070 400 μg/mouse PO daily, 22 days, BLM plus acetate buffer 40%) was 90% and the Cmax ([4]; C57BL/6, 400 ug, Liver) was 5760 ng/g. The Tmax ([4]; C57BL/6, 400 ug, Liver) was 30 min, the Cmax ([4]; C57BL/6, 400 ug, Lung) was 5650 ng/g and the Tmax ([4]; C57BL/6, 400 ug, Lung) was 60 min. It also gave a Cmax ([4]; C57BL/6, 400 ug, Plasma) of 700 ng/mL, a Tmax ([4]; C57BL/6, 400 ug, Plasma) of 30 min and an AUC [4, 5] of 970 ng·h/mL. The Kp ([4]; Liver) was 79.7 and the Kp ([4]; Lung) was 83.3.
